Assay results as given in article PMC4979471 (Cell Death Discovery, 2015).
Where two headings read alike, the source gives them in different places.

Experiments:
Test in all cases: Kinase selectivity, P33-radiolabeled assay
Format in all cases: biochemical
Details in all cases: 10 μM ATP
ITK = target: T1, ITK (Homo sapiens, UniProt Q08881)
T1 construct: purchased Reaction Biology Corp
T1 sequence (Q08881 1-620): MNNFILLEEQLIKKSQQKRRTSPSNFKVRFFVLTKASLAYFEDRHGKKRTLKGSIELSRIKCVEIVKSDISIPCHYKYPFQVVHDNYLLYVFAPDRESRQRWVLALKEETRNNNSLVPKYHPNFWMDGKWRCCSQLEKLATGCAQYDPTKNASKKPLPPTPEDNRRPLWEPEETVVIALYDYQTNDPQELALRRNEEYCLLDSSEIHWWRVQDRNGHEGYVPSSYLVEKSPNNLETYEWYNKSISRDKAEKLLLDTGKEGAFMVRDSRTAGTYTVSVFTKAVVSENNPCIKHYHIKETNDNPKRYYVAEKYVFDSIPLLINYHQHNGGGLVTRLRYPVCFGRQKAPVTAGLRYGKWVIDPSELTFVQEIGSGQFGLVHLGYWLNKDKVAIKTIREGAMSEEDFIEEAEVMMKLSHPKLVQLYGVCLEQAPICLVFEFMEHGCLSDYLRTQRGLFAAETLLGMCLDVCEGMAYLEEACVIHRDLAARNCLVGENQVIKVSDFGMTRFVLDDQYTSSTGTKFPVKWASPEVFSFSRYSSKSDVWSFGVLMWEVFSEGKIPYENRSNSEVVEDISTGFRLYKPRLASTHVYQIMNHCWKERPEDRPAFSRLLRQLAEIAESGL
In short: (§1)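 ATP at 10 μM; test article at 10 μM, single point, two replicates. Output is activity as % of DMSO.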

YES/YES1 = target: T2, YES/YES1 (Homo sapiens, UniProt P07947)
T2 construct: purchased Reaction Biology Corp
In short: as §1

PKA = target: T3, PKA (Homo sapiens, UniProt P17612)
T3 construct: purchased Reaction Biology Corp
In short: as §1

ERBB2/HER2 = target: T4, ERBB2/HER2 (Homo sapiens, UniProt P04626)
T4 construct: purchased Reaction Biology Corp
In short: as §1

PKCtheta = target: T5, PKCtheta (Homo sapiens, UniProt Q04759)
T5 construct: purchased Reaction Biology Corp
In short: as §1

SLK/STK2 = target: T6, SLK/STK2 (Homo sapiens, UniProt Q9H2G2)
T6 construct: purchased Reaction Biology Corp
In short: as §1

ULK2 = target: T7, ULK2 (Homo sapiens, UniProt Q8IYT8)
T7 construct: purchased Reaction Biology Corp
T7 sequence (Q8IYT8 1-1036): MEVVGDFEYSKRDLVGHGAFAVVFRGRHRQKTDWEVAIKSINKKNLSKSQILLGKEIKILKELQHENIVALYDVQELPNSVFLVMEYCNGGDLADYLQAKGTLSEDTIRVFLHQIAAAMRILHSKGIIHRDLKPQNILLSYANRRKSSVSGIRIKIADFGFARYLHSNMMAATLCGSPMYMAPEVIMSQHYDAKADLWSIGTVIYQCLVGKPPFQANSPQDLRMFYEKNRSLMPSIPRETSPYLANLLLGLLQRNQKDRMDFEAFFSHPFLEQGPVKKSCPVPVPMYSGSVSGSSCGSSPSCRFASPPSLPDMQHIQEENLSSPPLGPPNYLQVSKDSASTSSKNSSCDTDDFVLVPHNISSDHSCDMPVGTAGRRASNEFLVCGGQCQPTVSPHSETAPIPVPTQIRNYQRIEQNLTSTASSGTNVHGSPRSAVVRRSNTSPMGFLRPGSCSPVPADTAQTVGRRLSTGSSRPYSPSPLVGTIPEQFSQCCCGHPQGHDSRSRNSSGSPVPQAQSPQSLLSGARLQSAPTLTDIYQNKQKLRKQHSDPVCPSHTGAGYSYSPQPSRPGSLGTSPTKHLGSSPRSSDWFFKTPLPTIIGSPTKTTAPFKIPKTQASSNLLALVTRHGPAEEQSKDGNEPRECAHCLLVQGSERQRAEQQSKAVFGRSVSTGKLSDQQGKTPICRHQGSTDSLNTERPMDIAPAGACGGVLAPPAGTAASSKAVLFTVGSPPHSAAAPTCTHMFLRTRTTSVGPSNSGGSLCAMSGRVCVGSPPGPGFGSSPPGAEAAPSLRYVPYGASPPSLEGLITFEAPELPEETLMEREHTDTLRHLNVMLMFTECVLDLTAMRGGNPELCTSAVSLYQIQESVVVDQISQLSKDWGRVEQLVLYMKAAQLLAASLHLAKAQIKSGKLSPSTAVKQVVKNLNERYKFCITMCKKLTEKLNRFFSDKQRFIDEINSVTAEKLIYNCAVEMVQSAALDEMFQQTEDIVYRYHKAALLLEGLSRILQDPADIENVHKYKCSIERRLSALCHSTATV
In short: as §1

KHS/MAP4K5 = target: T8, KHS/MAP4K5 (Homo sapiens, UniProt Q9Y4K4)
T8 construct: purchased Reaction Biology Corp
In short: as §1

[1] = read-out: % Enzyme Activity (relative to DMSO controls) AVG
[2] = read-out: % Enzyme Activity (relative to DMSO controls) Data 1
[3] = read-out: % Enzyme Activity (relative to DMSO controls) Data 2

T8 sequence (Q9Y4K4 whole entry): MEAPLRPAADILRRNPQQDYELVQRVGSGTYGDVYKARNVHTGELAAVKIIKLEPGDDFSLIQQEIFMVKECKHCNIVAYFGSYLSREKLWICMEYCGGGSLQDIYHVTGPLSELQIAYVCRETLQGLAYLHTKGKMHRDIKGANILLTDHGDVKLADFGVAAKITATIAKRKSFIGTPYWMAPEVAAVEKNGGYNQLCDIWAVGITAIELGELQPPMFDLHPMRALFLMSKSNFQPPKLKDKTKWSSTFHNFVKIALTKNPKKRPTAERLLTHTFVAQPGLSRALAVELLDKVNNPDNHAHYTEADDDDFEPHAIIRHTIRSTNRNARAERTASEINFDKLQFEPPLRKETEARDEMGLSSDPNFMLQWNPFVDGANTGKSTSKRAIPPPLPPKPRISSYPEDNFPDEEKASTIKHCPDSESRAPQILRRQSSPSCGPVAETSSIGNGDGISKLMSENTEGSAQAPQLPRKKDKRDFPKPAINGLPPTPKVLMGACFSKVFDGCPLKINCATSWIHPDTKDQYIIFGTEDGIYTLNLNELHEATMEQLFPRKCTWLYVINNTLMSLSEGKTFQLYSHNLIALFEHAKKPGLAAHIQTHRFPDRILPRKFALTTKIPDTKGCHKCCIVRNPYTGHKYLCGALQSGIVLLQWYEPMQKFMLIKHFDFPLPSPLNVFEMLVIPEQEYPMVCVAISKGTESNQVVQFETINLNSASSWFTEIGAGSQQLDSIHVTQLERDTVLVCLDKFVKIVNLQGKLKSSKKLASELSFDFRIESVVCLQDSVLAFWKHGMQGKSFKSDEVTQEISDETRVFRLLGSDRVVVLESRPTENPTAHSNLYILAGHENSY
T5 sequence (Q04759 whole entry): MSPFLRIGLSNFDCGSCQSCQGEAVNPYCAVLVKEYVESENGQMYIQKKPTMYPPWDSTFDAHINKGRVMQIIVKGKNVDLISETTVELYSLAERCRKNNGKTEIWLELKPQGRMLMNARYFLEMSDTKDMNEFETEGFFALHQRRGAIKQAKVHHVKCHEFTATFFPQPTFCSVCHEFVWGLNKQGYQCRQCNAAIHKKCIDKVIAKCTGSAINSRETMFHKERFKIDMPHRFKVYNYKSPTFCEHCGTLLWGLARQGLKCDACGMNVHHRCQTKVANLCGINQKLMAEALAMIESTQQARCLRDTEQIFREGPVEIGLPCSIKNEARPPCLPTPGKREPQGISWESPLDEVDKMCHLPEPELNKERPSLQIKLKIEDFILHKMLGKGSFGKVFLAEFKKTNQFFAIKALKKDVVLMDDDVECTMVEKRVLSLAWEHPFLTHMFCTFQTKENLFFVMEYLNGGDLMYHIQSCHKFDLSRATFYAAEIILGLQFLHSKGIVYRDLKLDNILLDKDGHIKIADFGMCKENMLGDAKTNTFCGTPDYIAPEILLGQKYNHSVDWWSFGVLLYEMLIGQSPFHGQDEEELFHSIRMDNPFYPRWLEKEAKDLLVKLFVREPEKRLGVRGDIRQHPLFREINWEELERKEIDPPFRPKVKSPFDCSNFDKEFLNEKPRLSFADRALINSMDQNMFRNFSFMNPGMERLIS
T4 sequence (P04626 23-1255): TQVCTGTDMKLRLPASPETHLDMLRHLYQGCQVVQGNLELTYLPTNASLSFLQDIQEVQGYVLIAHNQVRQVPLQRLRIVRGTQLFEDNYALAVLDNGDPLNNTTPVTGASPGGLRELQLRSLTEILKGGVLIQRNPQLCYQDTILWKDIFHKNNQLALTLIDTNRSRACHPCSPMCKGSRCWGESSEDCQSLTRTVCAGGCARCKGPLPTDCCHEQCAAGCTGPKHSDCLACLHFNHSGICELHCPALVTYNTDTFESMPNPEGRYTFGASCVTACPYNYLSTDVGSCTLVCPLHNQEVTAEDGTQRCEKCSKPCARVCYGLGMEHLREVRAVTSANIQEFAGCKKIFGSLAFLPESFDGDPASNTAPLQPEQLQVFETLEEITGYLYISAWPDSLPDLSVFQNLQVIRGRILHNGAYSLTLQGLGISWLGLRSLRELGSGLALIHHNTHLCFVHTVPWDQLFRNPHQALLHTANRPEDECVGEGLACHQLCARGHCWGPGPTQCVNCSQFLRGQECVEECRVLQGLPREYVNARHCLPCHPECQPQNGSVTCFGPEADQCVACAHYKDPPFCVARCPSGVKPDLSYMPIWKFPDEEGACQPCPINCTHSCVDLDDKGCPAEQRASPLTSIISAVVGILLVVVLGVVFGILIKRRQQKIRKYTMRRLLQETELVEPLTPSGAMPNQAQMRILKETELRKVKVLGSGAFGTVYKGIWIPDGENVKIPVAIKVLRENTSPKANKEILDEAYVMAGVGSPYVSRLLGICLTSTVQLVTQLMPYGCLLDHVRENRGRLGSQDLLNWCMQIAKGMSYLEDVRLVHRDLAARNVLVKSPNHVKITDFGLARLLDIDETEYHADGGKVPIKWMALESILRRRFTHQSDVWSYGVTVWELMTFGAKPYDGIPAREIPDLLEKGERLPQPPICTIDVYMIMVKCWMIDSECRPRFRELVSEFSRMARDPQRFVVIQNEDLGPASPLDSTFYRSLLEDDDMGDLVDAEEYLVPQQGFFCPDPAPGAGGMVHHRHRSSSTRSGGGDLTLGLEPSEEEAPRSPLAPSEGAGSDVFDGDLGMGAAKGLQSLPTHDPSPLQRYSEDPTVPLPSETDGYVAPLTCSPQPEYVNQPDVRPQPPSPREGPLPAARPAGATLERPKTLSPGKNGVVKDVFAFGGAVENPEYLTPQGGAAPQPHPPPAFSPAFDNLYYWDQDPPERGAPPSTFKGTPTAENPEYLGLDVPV
T2 sequence (P07947 whole entry): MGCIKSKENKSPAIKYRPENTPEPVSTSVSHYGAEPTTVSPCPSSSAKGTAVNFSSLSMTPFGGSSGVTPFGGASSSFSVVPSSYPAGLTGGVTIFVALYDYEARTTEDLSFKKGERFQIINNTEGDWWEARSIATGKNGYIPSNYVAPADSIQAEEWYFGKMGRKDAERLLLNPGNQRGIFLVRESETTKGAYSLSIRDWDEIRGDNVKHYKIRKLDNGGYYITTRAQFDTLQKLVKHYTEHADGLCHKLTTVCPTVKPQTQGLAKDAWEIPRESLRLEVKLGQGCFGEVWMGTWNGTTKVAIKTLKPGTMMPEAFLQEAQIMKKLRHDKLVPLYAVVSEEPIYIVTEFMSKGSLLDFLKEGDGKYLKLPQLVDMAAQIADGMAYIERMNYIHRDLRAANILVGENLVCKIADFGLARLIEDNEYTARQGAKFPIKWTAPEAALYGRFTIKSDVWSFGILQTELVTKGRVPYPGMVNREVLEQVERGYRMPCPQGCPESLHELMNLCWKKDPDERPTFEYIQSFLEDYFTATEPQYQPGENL
T6 sequence (Q9H2G2 whole entry): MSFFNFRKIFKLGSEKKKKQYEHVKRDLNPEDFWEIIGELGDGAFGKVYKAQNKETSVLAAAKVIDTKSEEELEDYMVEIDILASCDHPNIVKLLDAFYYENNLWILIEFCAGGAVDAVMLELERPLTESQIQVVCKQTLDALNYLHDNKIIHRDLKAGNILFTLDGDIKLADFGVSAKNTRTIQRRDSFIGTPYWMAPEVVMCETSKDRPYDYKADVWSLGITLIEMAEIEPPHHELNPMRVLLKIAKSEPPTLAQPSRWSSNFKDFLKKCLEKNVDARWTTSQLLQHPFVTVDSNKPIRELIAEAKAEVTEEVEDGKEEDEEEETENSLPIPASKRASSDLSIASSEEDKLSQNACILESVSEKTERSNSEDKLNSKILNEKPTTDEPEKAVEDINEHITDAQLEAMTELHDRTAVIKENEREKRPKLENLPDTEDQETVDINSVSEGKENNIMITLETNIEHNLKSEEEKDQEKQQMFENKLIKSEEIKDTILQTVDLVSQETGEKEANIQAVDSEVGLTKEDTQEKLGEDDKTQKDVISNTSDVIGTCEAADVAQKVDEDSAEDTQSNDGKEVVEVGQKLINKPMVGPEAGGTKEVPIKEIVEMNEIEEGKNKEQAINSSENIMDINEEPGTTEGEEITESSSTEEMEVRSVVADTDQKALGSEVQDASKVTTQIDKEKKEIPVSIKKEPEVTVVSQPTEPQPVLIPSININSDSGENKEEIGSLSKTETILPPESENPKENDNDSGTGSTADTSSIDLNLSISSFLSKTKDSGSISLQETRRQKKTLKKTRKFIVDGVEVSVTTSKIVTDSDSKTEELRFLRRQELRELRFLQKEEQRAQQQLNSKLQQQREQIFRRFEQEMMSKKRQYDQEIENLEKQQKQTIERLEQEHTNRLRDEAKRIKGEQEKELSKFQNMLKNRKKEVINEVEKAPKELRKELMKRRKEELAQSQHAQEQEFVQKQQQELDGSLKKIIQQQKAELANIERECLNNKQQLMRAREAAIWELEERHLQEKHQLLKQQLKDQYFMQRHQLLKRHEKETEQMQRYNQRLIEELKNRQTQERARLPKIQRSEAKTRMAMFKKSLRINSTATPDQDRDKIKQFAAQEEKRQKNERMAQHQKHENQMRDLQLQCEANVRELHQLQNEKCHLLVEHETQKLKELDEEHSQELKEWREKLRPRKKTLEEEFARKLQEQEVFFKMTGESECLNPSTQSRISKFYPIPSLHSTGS

CC(C)(C)C(=O)N1N=CC[C@H]1c1ccccc1 [GSK′963]
remaining activity at 10 µM (ITK; [1]): 102%
remaining activity at 10 µM (ITK; [2]): 95.2%
remaining activity at 10 µM (ITK; [3]): 108%
remaining activity at 10 µM (YES/YES1; [1]): 88.2%
remaining activity at 10 µM (YES/YES1; [2]): 88.7%
remaining activity at 10 µM (YES/YES1; [3]): 87.8%
remaining activity at 10 µM (PKA; [1]): 110%
remaining activity at 10 µM (PKA; [2]): 112%
remaining activity at 10 µM (PKA; [3]): 107%
remaining activity at 10 µM (ERBB2/HER2; [1]): 105%
remaining activity at 10 µM (ERBB2/HER2; [2]): 102%
remaining activity at 10 µM (ERBB2/HER2; [3]): 107%
remaining activity at 10 µM (PKCtheta; [1]): 96.8%
remaining activity at 10 µM (PKCtheta; [2]): 97%
remaining activity at 10 µM (PKCtheta; [3]): 96.7%
remaining activity at 10 µM (SLK/STK2; [1]): 86.9%
remaining activity at 10 µM (SLK/STK2; [2]): 85.3%
remaining activity at 10 µM (SLK/STK2; [3]): 88.5%
remaining activity at 10 µM (ULK2; [1]): 99.7%
remaining activity at 10 µM (ULK2; [2]): 99.8%
remaining activity at 10 µM (ULK2; [3]): 99.5%
remaining activity at 10 µM (KHS/MAP4K5; [1]): 93.8%
remaining activity at 10 µM (KHS/MAP4K5; [2]): 91.7%
remaining activity at 10 µM (KHS/MAP4K5; [3]): 96%
